# Data published in PubChem BioAssay (NCI).
#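 In this assay, cells in 96-well plates receive the compound at five concentrations for 48 hours. Endpoints are linearly interpolated between the surrounding concentrations. GI50 marks 50% less growth. TGI denotes the concentration required for complete inhibition of growth.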
# Assays:
# Assay in all cases: NCI anticancer screen, dose series, 48 h
# CCRF-CEM leukemia = system: CCRF-CEM leukemia
# KM12 colon = system: KM12 colon
# SK-MEL-28 melanoma = system: SK-MEL-28 melanoma
# SN12C renal = system: SN12C renal
# SNB-75 CNS = system: SNB-75 CNS
# UO-31 renal = system: UO-31 renal
# HS 578T breast = system: HS 578T breast
# NCI-H522 lung = system: NCI-H522 lung
# SF-268 CNS = system: SF-268 CNS
# SK-OV-3 ovarian = system: SK-OV-3 ovarian
SMILES,GI50 (CCRF-CEM leukemia) [µM],TGI (CCRF-CEM leukemia) [µM],GI50 (KM12 colon) [µM],TGI (KM12 colon) [µM],GI50 (SK-MEL-28 melanoma) [µM],TGI (SK-MEL-28 melanoma) [µM],GI50 (SN12C renal) [µM],TGI (SN12C renal) [µM],GI50 (SNB-75 CNS) [µM],TGI (SNB-75 CNS) [µM],GI50 (UO-31 renal) [µM],TGI (UO-31 renal) [µM],TGI (HS 578T breast) [µM],TGI (NCI-H522 lung) [µM],TGI (SF-268 CNS) [µM],TGI (SK-OV-3 ovarian) [µM],GI50 (HS 578T breast) [µM],GI50 (NCI-H522 lung) [µM],GI50 (SF-268 CNS) [µM],GI50 (SK-OV-3 ovarian) [µM]
Cc1[nH]c(C(=O)Nc2ccc(C(=O)NCCN)cc2OC(C)C)c(Cl)c1Cl,2.13,5.17,1.74,3.21,1.76,3.21,1.82,3.41,1.55,3.07,1.54,2.96,,,,,,,,
c1ccc(/C(=N\Nc2nc3ccccc3[nH]2)c2ccccn2)cc1,,0.891,,17,,12.8,,> 21.1,,3.85,,6.73,51.7,0.69,> 45.9,2.02,,,,
CC(C)CCN(CCC(C)C)CC(=O)Nc1ccc(S(=O)(=O)c2ccc(NC(=O)CN(CCC(C)C)CCC(C)C)cc2)cc1,1.06,3.87,1.62,3.25,2.64,9.98,3.1,25.2,13.3,42,2.07,12.8,70.3,3.2,4.68,88,5.37,1.53,1.51,28
C[N+]1(C(CO)Cc2c[nH]c3ccccc23)Cc2ccccc2C1 (stereo not drawn),,> 100,,> 100,,> 100,,> 100,,> 100,,> 100,> 100,> 100,> 100,> 100,,,,
C[n+]1c2ccccc2c(N=[N+]=[N-])c2ccccc21,,> 10,,> 10,,> 10,,> 10,,,,,> 10,> 10,> 10,> 10,,,,
C=C(CN(C)C)C(=O)c1ccccc1OC,,14.5,,63,,38.2,,40,,61,,31.3,56.8,6.01,63.7,> 66.1,,,,
O=C1OC(c2ccc(O)cc2)(c2ccc(O)cc2)c2ccc(Cl)c3cccc1c23 (tested in a mixture with another compound),,36.2,,17.9,,21.1,,27.7,,,,> 75,40.6,,52.8,> 75,,,,
O=C1Nc2cccc(Cl)c2/C1=C\c1cccnc1,,> 100,,25.9,,> 100,,20.5,,40.2,,18.5,91.9,21.6,25.6,15.3,,,,
